From PubChem BioAssay (NCI)
Where “and” joins values, the source holds several entries; their conditions need not be identical. Equal values may be shown once.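 Growth conditions: 96-well plates. Treatment: test compound, 48 hours, 5 concentrations. Analysis: linear interpolation between bracketing concentrations; unreached endpoints set to highest concentration. GI50 marks 50% less growth. Definition used: TGI = concentration required for complete inhibition of growth.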

Columns and labels:
Experiment in all cases: NCI-60 cell line screen, 48 h
[1] = test system: ACHN renal
[2] = test system: CCRF-CEM leukemia
[3] = test system: HCC-2998 colon
[4] = test system: IGROV1 ovarian
[5] = test system: K-562 leukemia
[6] = test system: LOX IMVI melanoma
[7] = test system: M14 melanoma
[8] = test system: SF-268 CNS
[9] = test system: SNB-75 CNS
[10] = test system: SW-620 colon

Structure (SMILES)	TGI [1] [µM]	TGI [2] [µM]	GI50 [3] [µM]	TGI [3] [µM]	GI50 [4]	TGI [4]	GI50 [5] [µM]	TGI [5] [µM]	GI50 [6] [µM]	TGI [6] [µM]	TGI [7]	GI50 [8] [µM]	TGI [8] [µM]	GI50 [9] [µM]	TGI [9]	GI50 [10] [µM]	TGI [10] [µM]	GI50 [1] [µM]	GI50 [2]	GI50 [7] [µM]
COc1ccc(C2C(C)C(=O)C(C)C(c3ccc(OC)cc3)N2N=O)cc1 (configuration not stated)	> 663	> 1000	> 1000	> 1000	> 90.8 µM and 138 µM	391 µM and 656 µM	> 750	> 1000	> 750	> 1000	750 µM and > 732 µM	78.1	> 1000	5.93	20.4 µM and 80 µM and 57.8 µM	> 750	> 1000			
OCc1ccc(N2CCc3ccccc3C2)cc1Cl	> 78.6	99.6	1.15	7.11	< 0.0155 µM	< 0.0281 µM	< 0.0224	19	31.6	> 100	> 100 µM	32.5	> 100	15.9	57.7 µM	< 0.0218	> 100	18.4	27.3 µM	34.1
CC(C)(C)c1c2c(c(C(C)(C)C)c3c1OCN(Cc1ccccc1)C3)OCN(Cc1ccccc1)C2	51.1	> 100		22.3		45.1 µM		54.5		31.5	29 µM		35.6		> 100 µM		> 100			
O=C(c1ccco1)c1c(C(F)(F)F)n([O-])c2ccc(Cl)cc2[n+]1=O	0.482	0.838	0.101	0.216	0.404 µM		0.116	5.1	0.0951	0.287	1.67 µM	1.61	3.18	1.9	5.18 µM	0.22	1.18	0.137		0.374
O=C(Nc1ccc(/C=C/c2ccc(NC(=O)c3cc(S(=O)(=O)O)c4cccnc4c3O)cc2S(=O)(=O)O)c(S(=O)(=O)O)c1)c1cc(S(=O)(=O)O)c2cccnc2c1O	> 15.8	> 29.1	97.6	> 100	18.5 µM	> 60.2 µM	12	> 75.2	3.07	> 28	> 49 µM	7.99	> 100	8.18	48.7 µM	17.8	> 83.8	3.37	3.15 µM	7.18
COc1ccc(/C=C2\C=C(c3ccccc3)N(CCc3ccccc3)C2=O)cc1OC	14	> 100	12.9	64.1	4.93 µM	52.1 µM	23.9	> 100	5.94	19	> 100 µM	8.18	26.5	1.89	6.28 µM	13.6	> 100	3.53	35.9 µM	8.84
COc1cc(C(=O)Nc2cc(OC)c3ccn(C)c3c2)cc2c1C[C@]1(C)CC[C@@H](O)C(C)(C)[C@H]1O2	> 100	> 100	3.74	49.8	1.7 µM	> 100 µM	0.597	> 100	1.01	10.1	2.9 µM	1.99	> 100	0.0521	2.19 µM	1.04	10	0.944	0.0927 µM	0.454
C[C@@H](Oc1ccc(C(=O)NS(=O)(=O)C(C)(C)C)cc1C(F)(F)F)c1ccc(Oc2ccccc2)cn1	14.5	16.4	2.76	11.3	2.64 µM	13.7 µM	1.25	21	2.8	10.8	7.57 µM	3.54	17.8	2.04	10.8 µM	3.18	14.6	3.59	2.52 µM	1.91
COc1ccc2nc3cc(Cl)ccc3c(Sc3ccc([N+](=O)[O-])cc3)c2c1	> 10	> 100		> 10	> 100 µM	> 100 µM	> 100	> 100	> 100	> 100	> 100 µM	> 100	> 100	> 10	> 100 µM	> 100	> 100		> 100 µM	> 100
O=c1ssc(Cl)c1Cl	> 10	5.25		> 10		> 10 µM		9.04		> 10	> 10 µM		> 10		> 10 µM		> 8.11			
CC(=O)OC12COC1CC(O)C1(C)C(=O)C(O)C3=C(C)C(O)CC(O)(C(OC(=O)c4ccccc4)C21)C3(C)C (configuration not stated)	> 100	> 100		59.3		> 100 µM		> 100		> 100	> 100 µM		> 100		> 29.9 µM	2.48	> 100			
CS(=O)(=O)CC(=O)c1ccccc1	> 100	> 100		> 100		> 100 µM		> 100		> 100	> 100 µM		> 100		> 100 µM		> 100			
Oc1cc2ccccc2c(-c2c(O)c(O)cc3ccccc23)c1O	21.1	> 27.7	0.506	2.61	0.273 µM	3.4 µM	0.0738		0.939	8.57	11.4 µM	1.88	23.3	2.23	28.1 µM	3.49	26.9	0.571	0.554 µM	1.4
O=C(COC(=O)c1cccc2c(=O)c3ccccc3[nH]c12)Nc1ccc(C(=O)O)cc1	> 100	> 100		> 100		> 100 µM		> 100		> 10	> 100 µM		> 100		> 100 µM		> 100			
O=C(O)c1ccc(C(=O)O)c(C(=O)Nc2ccc3c(c2)C(=O)c2ccccc2-3)c1	> 100	> 100		> 100		> 100 µM		> 100		> 100	> 100 µM		> 100		> 100 µM		> 100			
NN1C(=O)C(CCO)S/C1=N/N=C1/SC(CCO)C(=O)N1N (configuration not stated)	> 100	> 100		> 100		> 100 µM		> 100		> 100	> 100 µM		> 100		> 100 µM		> 100			
COc1cc(C(=O)N/N=C/c2ccc(N(C)C)cc2)cc(OC)c1OC	> 100	> 100	0.551	19.1	1.15 µM	> 100 µM	0.353	> 100	0.736	> 100	> 100 µM	1.12	> 100	0.152	> 100 µM	0.424	> 100	1.28	0.344 µM	0.335
O=C1c2cccc(NCCN=Cc3ccccc3O)c2C(=O)c2c(NCCN=Cc3ccccc3O)cccc21	8.82	4.24	0.535	1.72	0.237 µM	0.504 µM	0.406	5.14	0.534	2.44	5.63 µM	0.349	1.46	0.163	2.65 µM	0.258	1.38	1.32	1.02 µM	1.88
COC(=O)C(Cc1nc2ccccc2nc1C)/C(=N\NC(N)=O)C(=O)Nc1cccc([N+](=O)[O-])c1 (configuration not stated)	> 100	> 100		> 100		> 100 µM		> 100		> 100	> 100 µM		> 100		> 100 µM		> 100			
Cc1ccccc1-n1c2nc(=O)n(C)c(=O)c-2nc2ccccc21	21	40.4		24.2		37.9 µM		43.6		39.7	25.4 µM		32.1		39.9 µM		28.1			
Cc1cc(N(CCCl)CCCl)ccc1C=Nc1ccc2ccccc2c1	> 100	> 100	27.9	> 100	28.5 µM	> 100 µM	32.4	> 100	22.1	> 100	> 100 µM	15.8	> 100	2.52	> 89.7 µM	41.9	> 100	4.51	4.85 µM	31.7
COc1cc2c(cc1OC)C1Cc3cc(OC)c(OC)cc3C(C2)N1C	> 100	> 100		> 100		> 75 µM		> 100		> 75	> 100 µM		> 100		> 100 µM		> 100		27.4 µM and > 100 µM	
CC(C)NC(=O)CCN(C(=O)O)S(=O)(=O)c1ccc(NC(=O)c2ccccc2)cc1	> 100	> 63.4		> 100		> 100 µM		> 64.5		> 61.7	> 100 µM		> 100		> 100 µM		> 52.4			
COc1cc(/C=C/C(=O)N2CCN(C(=O)c3cc(OC)c(OC)c(OC)c3)CC2)ccc1OCCCOc1cc2c(cc1OC)C(=O)N1CCC[C@H]1C=N2	> 35.3	> 100	0.296	0.838			0.324	> 100	0.215	0.726	1.42 µM	0.284	4.03	0.241	0.642 µM	0.198	0.446	2.64	0.0832 µM	0.346
COc1ccc(C2C=C(c3ccc4c(c3)OCO4)Oc3c2c(=O)oc2ccccc32)cc1OC (configuration not stated)	> 100	> 100		2.26		> 100 µM				> 100	> 100 µM		> 100		34.2 µM		> 100			
O=S(=O)(/N=c1/scc(-c2ccccc2)n1-c1ccccc1)c1ccc(N2N=C3c4ccccc4CC3C2c2cccs2)cc1 (configuration not stated)	> 100	> 100	32.8	81.3				> 100	32.4	> 100	> 100 µM	> 100	> 100	> 100	> 100 µM	94.2	> 100	42.5	50.3 µM	81.5
CCCCCCCCn1ccc2cc(NC(=O)Cn3cc(CN4CCCCC4)nn3)ccc21	3.19	7.74	1.66	3.28	1.88 µM	3.97 µM			1.63	3.17	3.43 µM	2.05	4.51	1.51	2.96 µM	1.84	3.59	1.72	2.01 µM	1.78
COc1ccc(-n2ccnc2-c2cc(OC)c(OC)c(OC)c2)cc1		> 100	0.957	24.6	2.42 µM	> 100 µM	3.14	> 100	7.99	> 100	> 100 µM	8.69	> 100	2.19	6.31 µM	2.37	> 100		2.99 µM	2.46
COc1cc(-c2cc(-c3cc(OC)c(OC)c(OC)c3)nc3nc(N)[nH]c(=O)c23)ccc1Oc1ccnc2cc(Cl)ccc12	82.7	> 100	3.14	11.3	4.49 µM	> 100 µM	0.379	> 100	1.27	19.8		3.43	> 100	1.9	> 100 µM	1.35	> 100	2.89	2.66 µM	
